According to patent US20120035217A1, “Bis Aromatic Compounds for Use as LTC4 Synthase Inhibitors” (BIOLIPOX AB, priority 2009, published 2012):

Molecular target: T1, Recombinant human LTC4 synthase (Homo sapiens, UniProt Q16873)
T1 construct: made in house; host or cells: Pichia pastoris ('Piccia pastoralis' [sic])
T1 sequence (Q16873 1-150): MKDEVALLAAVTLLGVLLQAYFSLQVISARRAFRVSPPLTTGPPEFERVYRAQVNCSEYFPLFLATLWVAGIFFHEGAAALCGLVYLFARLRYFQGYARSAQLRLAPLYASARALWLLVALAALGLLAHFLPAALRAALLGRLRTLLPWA
Assay: Biological in vitro assay: LTC4 synthase conversion of LTA4 to LTC4, HTRF detection
Assay type: biochemical
Settings: for % inhibition: total concentration of title compound in the assay 10 μM
Description: In the assay, LTC4 synthase catalyses the reaction where the substrate LTA4 is converted to LTC4. Recombinant human LTC4 synthase is expressed in Piccia pastoralis and the purified enzyme is dissolved in 25 mM tris-buffer pH 7.8 supplemented with 0.1 mM glutathione (GSH) and stored at −80° C. The assay is performed in phosphate buffered saline (PBS) pH 7.4 and 5 mM GSH in 384-well plates.
The following is added chronologically to each well:
1. 48 μL LTC4 synthase in PBS with 5 mM GSH. The total protein concentration in this solution is 0.5 μg/mL. 2. 1 μL inhibitor in DMSO (final concentration 10 μM). 3. Incubation of the plate at room temperature for 10 min. 4. 1 μL LTA4 (final concentration 2.5 μM). 5. Incubation of the plate at room temperature for 5 min. 6. 10 μL of the incubation mixture is analysed using homogenous time resolved fluorescent (HTRF) detection.

Row | SMILES | IC50 [nM] | % inhibition [%]
1 | Cc1cc2ncn(-c3ccc(C(=O)c4ccc(N(C)c5ccc(Cl)cc5)cc4)cc3C(=O)O)c2cc1C [Example 1, 5-{4-[(4-Chlorophenyl)(methyl)amino]benzoyl}-2-(5,6-dimethyl-1-benzimidazolyl)-benzoic acid] | 288 | 97
2 | CN(c1ccc(Cl)cc1)c1ccc(C(=O)c2ccc(-n3cc(-c4ccccc4)nn3)c(C(=O)O)c2)cc1 [Example 2:1, 5-{4-[(4-Chlorophenyl)(methyl)amino]benzoyl}-2-(4-phenyl-1,2,3-triazol-1-yl)-benzoic acid] | 326 | 99
3 | CN(c1ccc(Cl)cc1)c1ccc(C(=O)c2ccc(-n3cc(-c4cccc(Cl)c4)nn3)c(C(=O)O)c2)cc1 [Example 2:2, 5-{4-[(4-Chlorophenyl)(methyl)amino]benzoyl}-2-[4-(3-chlorophenyl)-1,2,3-triazol-1-yl]benzoic acid] | 214 | 99
4 | CN(c1ccc(Cl)cc1)c1ccc(C(=O)c2ccc(-n3nncc3-c3ccccc3)c(C(=O)O)c2)cc1 [Example 3:1, 5-{4-[(4-Chlorophenyl)(methyl)amino]benzoyl}-2-(5-phenyl-1,2,3-triazol-1-yl)-benzoic acid] | 154 | 100
5 | CN(c1ccc(Cl)cc1)c1ccc(C(=O)c2ccc(-n3nncc3-c3cccc(Cl)c3)c(C(=O)O)c2)cc1 [Example 3:2, 5-{4-[(4-Chlorophenyl)(methyl)amino]benzoyl}-2-[5-(3-chlorophenyl)-1,2,3-triazol-1-yl]benzoic acid] | 36 | 100
6 | CN(c1ccc(Cl)cc1)c1ccc(C(=O)c2ccc(-c3nccn3-c3ccccc3)c(C(=O)O)c2)nc1 [Example 9, 5-{5-[(4-Chlorophenyl)(methyl)amino]picolinoyl}-2-(1-phenylimidazol-2-yl)benzoic acid] | 217 | –
